Holding throughout (type): in vivo
In test [1] the test system is Lolium perenne (LOLPE). Description: Example B pre-emergence herbicidal test, LOLPE. As to conditions: Lolium perenne, 312 h, rate 250 g/ha, evaluated after 13 days, 100=total damage to plant, 0=no damage to plant. The procedure, abridged: (§1)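 Pots sown, sprayed day 1 pre-emergence; spray: aqueous dilution of formulation in acetone/water 50:50 + 0.5% Tween 20. Glasshouse 24/16° C, 14 h light, 65% RH, watering twice daily. Visual damage rating at 13 d, 0–100 scale.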

Test [2] has as its system Alopecurus myosuroides (ALOMY). Put plainly: Example B pre-emergence herbicidal test, ALOMY. The conditions noted are these: Alopecurus myosuroides, 312 h, rate 250 g/ha, evaluated after 13 days, 100=total damage to plant, 0=no damage to plant. The procedure, abridged: as §1
Test [3] relates to Echinochloa crus-galli (ECHCG). Put plainly: Example B pre-emergence herbicidal test, ECHCG. The conditions noted are these: Echinochloa crus-galli, 312 h, rate 250 g/ha, evaluated after 13 days, 100=total damage to plant, 0=no damage to plant. In outline: as §1
Test [4] deals with Avena fatua (AVEFA). Put plainly: Example B pre-emergence herbicidal test, AVEFA. The conditions noted are these: Avena fatua, 312 h, rate 250 g/ha, evaluated after 13 days, 100=total damage to plant, 0=no damage to plant. In outline:
as §1

Test [5] relates to Lolium perenne (LOLPE). Put plainly: Example B post-emergence herbicidal test, LOLPE. The conditions noted are these: Lolium perenne, 312 h, rate 250 g/ha, evaluated after 13 days, scale 0-100, read-out: Post-emergence activity LOLPE (100=total damage to plant; 0=no damage to plant). In outline: (§2)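 Plants grown 8 days in glasshouse (24/16 °C day/night, 14 h light, 65% humidity), then sprayed with aqueous solution from acetone/water (50:50) formulation with 0.5% Tween 20. Damage scored 13 days later on a 0–100 scale (100 = total damage).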

The test system of test [6] is Alopecurus myosuroides (ALOMY). Description: Example B post-emergence herbicidal test, ALOMY. As to conditions: Alopecurus myosuroides, 312 h, rate 250 g/ha, evaluated after 13 days, scale 0-100, read-out: Post-emergence activity ALOMY (100=total damage to plant; 0=no damage to plant). In outline: as §2
Test [7] deals with Echinochloa crus-galli (ECHCG). Description: Example B post-emergence herbicidal test, ECHCG. As to conditions: Echinochloa crus-galli, 312 h, rate 250 g/ha, evaluated after 13 days, scale 0-100, read-out: Post-emergence activity ECHCG (100=total damage to plant; 0=no damage to plant). The procedure, abridged:
as §2

The subject of test [8] is Avena fatua (AVEFA). Put plainly: Example B post-emergence herbicidal test, AVEFA. As to conditions: Avena fatua, 312 h, rate 250 g/ha, evaluated after 13 days, scale 0-100, read-out: Post-emergence activity AVEFA (100=total damage to plant; 0=no damage to plant). The procedure, abridged:
as §2

Test [9] deals with Winter Wheat variety 'Hereward'. Description: Example C crop damage test on Winter Wheat, post-emergence, no safener. As to conditions: Triticum aestivum, 312 h, rate 250 g/ha, evaluated after 13 days, read-out: Winter Wheat (Hereward) damage (100=total damage to plant; 0=no damage to plant). On the procedure:
Seeds of the Winter Wheat variety ‘Hereward’ were sown in standard soil in pots. After 8 days cultivation under controlled conditions in a glasshouse (at 24/16° C., day/night; 14 hours light; 65% humidity), the plants were sprayed with an aqueous spray solution derived from the formulation of the technical active ingredient in acetone/water (50:50) solution containing 0.5% Tween 20 (polyoxyethelyene sorbitan monolaurate, CAS RN 9005-64-5). The test plants were then grown in a glasshouse under controlled conditions in a glasshouse (at 24/16° C., day/night; 14 hours light; 65% humidity) and watered twice daily. After 13 days for pre and post-emergence, the test was evaluated (100=total damage to plant; 0=no damage to plant).

Test [10] concerns Winter Wheat variety 'Hereward' seed treated with cloquintocet mexyl. Description: Example C crop damage test on Winter Wheat seed treated with safener cloquintocet mexyl, post-emergence. The conditions noted are these: rate 250 g/ha, seed treated with cloquintocet mexyl 0.5 grams per kilogram of dry seed, evaluated after 13 days. On the procedure: Seeds of the Winter Wheat variety ‘Hereward’ were seed treated with a wettable powder formulation of the cereal herbicide safener, cloquintocet mexyl, at a rate of 0.5 grams per kilogram of dry seed prior to the initiation of glasshouse testing. One seed was sown per 1.5 inch plastic pot into a sandy loam soil at a depth of 1 cm, 8 days prior to application of the test compounds and was watered and grown under controlled conditions in a glasshouse (at 24/16° C., day/night; 14 hours light; 65% humidity). The plants were sprayed Post-emergence with an aqueous spray solution derived from the formulation of the technical active ingredient in acetone/water (50:50) solution containing 0.5% Tween 20 (polyoxyethelyene sorbitan monolaurate, CAS RN 9005-64-5). The test plants were then grown in a glasshouse under controlled conditions in a glasshouse (at 24/16° C., day/night; 14 hours light; 65% humidity) and watered twice daily. After 13 days for pre and post-emergence, the test was evaluated (100=total damage to plant; 0=no damage to plant).

Turning to `Cc1cc(C)c(C2=C(OC(=O)OC(C)C)CC(CC3CCOCC3)C2=O)c(C)c1` (stereo not drawn) [Compound P43], the pest or weed control at 250 g/ha (with Lolium perenne (LOLPE) [1]; in [2]; in [3]; in the test with Avena fatua (AVEFA) [4]; in the test with Lolium perenne (LOLPE) [5]; in test [6]) was 100% in each case. Further, the values for the pest or weed control at 250 g/ha (in test [7]; with Avena fatua (AVEFA) [8]) were 100% and 90%, respectively. In addition, in [9], the crop damage to winter wheat at 250 g/ha stood at 50%. Moreover, the “Winter Wheat (Hereward) + cloquintocet mexyl damage (100=total damage to plant; 0=no damage to plant)” value in test [10] turned out to be 40.
In the case of `Cc1cc(C)c(C2=C(OC(=O)c3ccccc3)CC(CC3CCOCC3)C2=O)c(C)c1` (stereo not drawn) [Compound P44], the pest or weed control at 250 g/ha in the test on Lolium perenne (LOLPE) [1] came to 100%; in [2], 100%; in test [3], 100%; in the test with Avena fatua (AVEFA) [4], 90%; with Lolium perenne (LOLPE) [5], 100%; in test [6], 100%. For the same compound, the pest or weed control at 250 g/ha (in test [7]; in the test on Avena fatua (AVEFA) [8]) was 100% each time. Further, in test [9], the crop damage to winter wheat at 250 g/ha was determined as 70%. Also, the “Winter Wheat (Hereward) + cloquintocet mexyl damage (100=total damage to plant; 0=no damage to plant)” value in [10] was 40.
Turning to `Cc1cc(C)c(C2=C(OS(=O)(=O)C3CC3)CC(CC3CCOC3)C2=O)c(C)c1` (stereo not drawn) [Compound P28], the pest or weed control at 250 g/ha with Lolium perenne (LOLPE) [1] came to 100%; in test [2], 70%; in test [3] it was 20%; in the test on Avena fatua (AVEFA) [4] it was 30%; in the test with Lolium perenne (LOLPE) [5], 100%; in test [6], 70%. The pest or weed control at 250 g/ha in test [7] was 60%; in the test on Avena fatua (AVEFA) [8] it was 70%.
In the case of `Cc1cc(C)c(C2C(=O)CC(CC3CCN(C(=O)C(F)(F)F)C3)C2=O)c(C)c1` (stereo not drawn) [Compound T162], the pest or weed control at 250 g/ha was determined as 70% with Lolium perenne (LOLPE) [1]; 40% in [2]; 50% in test [3]; 50% in the test on Avena fatua (AVEFA) [4]; 90% with Lolium perenne (LOLPE) [5]; 60% in [6]. Besides, the results for the pest or weed control at 250 g/ha (in test [7]; with Avena fatua (AVEFA) [8]) were 70% and 80%, respectively.
Turning to `COC(=O)N1CCC(/C=C2\CC(=O)C(c3c(C)cc(C)cc3C)C2=O)C1` (stereo not drawn) [Compound T32], the pest or weed control at 250 g/ha in the test with Lolium perenne (LOLPE) [1] was 100%; in test [2], 70%; in test [3], 100%; in the test with Avena fatua (AVEFA) [4], 90%; with Lolium perenne (LOLPE) [5], 90%; in [6], 90%. Moreover, the pest or weed control at 250 g/ha (in test [7]; in the test with Avena fatua (AVEFA) [8]) was 90% in each case.
For the compound `COCC(=O)N1CCC(CC2CC(=O)C(c3c(C)cc(C)cc3C)C2=O)CC1` (stereo not drawn) [Compound T81], the pest or weed control at 250 g/ha in the test on Lolium perenne (LOLPE) [1] was 80%; in test [2] it was 80%; in test [3], 60%; in the test with Avena fatua (AVEFA) [4], 80%; with Lolium perenne (LOLPE) [5], 90%; in [6], 90%. For the same compound, the pest or weed control at 250 g/ha in [7] is 80%; with Avena fatua (AVEFA) [8], 100%.
Turning to `Cc1cc(C)c(C2C(=O)C(C)C(CC3CCOC3)C2=O)c(C)c1` (stereo not drawn) [Compound T29], the pest or weed control at 250 g/ha is 100% in the test on Lolium perenne (LOLPE) [1]; 70% in [2]; 90% in test [3]; 50% with Avena fatua (AVEFA) [4]; 90% with Lolium perenne (LOLPE) [5]; 70% in test [6]. Further, the figures for the pest or weed control at 250 g/ha (in test [7]; in the test with Avena fatua (AVEFA) [8]) were 80% and 60%, respectively.
Take `COc1ccc(CC2C(=O)C(c3c(C)cc(C)cc3C)C(=O)C2CC2CCOC2)cc1` (stereo not drawn) [Compound T149]: the pest or weed control at 250 g/ha in the test with Lolium perenne (LOLPE) [1] was found to be 20%; in test [2], 30%; in test [3], 30%; in the test on Avena fatua (AVEFA) [4], 10%; in the test on Lolium perenne (LOLPE) [5], 40%; in test [6], 30%. Also, the pest or weed control at 250 g/ha in test [7] came out at 20%; in the test on Avena fatua (AVEFA) [8], 40%.
In the case of `Cc1cc(C)c(C2C(=O)CC(CC3CCN(C(=O)CC(C)C)CC3)C2=O)c(C)c1` (stereo not drawn) [Compound T113], the pest or weed control at 250 g/ha came out at 70% with Lolium perenne (LOLPE) [1]; 60% in [2]; 90% in test [3]; 70% in the test with Avena fatua (AVEFA) [4]; 100% in the test with Lolium perenne (LOLPE) [5]; 90% in [6]. In addition, the values for the pest or weed control at 250 g/ha (in [7]; in the test on Avena fatua (AVEFA) [8]) were 70% and 100%, respectively.
Take `Cc1cc(C)c(C2C(=O)C(Cc3ccccc3)C(CC3CCOC3)C2=O)c(C)c1` (stereo not drawn) [Compound T151]: the pest or weed control at 250 g/ha was found to be 30% in the test with Lolium perenne (LOLPE) [1]; 20% in test [2]; 40% in [3]; 10% with Avena fatua (AVEFA) [4]; 20% with Lolium perenne (LOLPE) [5]; 30% in [6]. Besides, the pest or weed control at 250 g/ha in test [7] is 40%; in the test with Avena fatua (AVEFA) [8], 10%.
As to `Cc1cc(C)c(C2C(=O)CC(CC3CCN(C(=O)C4CCCC4)CC3)C2=O)c(C)c1` (stereo not drawn) [Compound T114], the pest or weed control at 250 g/ha with Lolium perenne (LOLPE) [1] stood at 40%; in test [2], 50%; in test [3], 60%; with Avena fatua (AVEFA) [4], 20%; with Lolium perenne (LOLPE) [5], 50%; in test [6] it was 40%. In addition, the pest or weed control at 250 g/ha in test [7] was 30%; in the test on Avena fatua (AVEFA) [8], 40%.
As to `Cc1cc(-c2ccc(Cl)cc2F)cc(C)c1C1C(=O)C/C(=C\C2CCOC2)C1=O` (stereo not drawn) [Compound T135], the pest or weed control at 250 g/ha was 40% with Lolium perenne (LOLPE) [1]; 0% in [2]; 60% in test [3]; 30% with Avena fatua (AVEFA) [4]; 70% in the test on Lolium perenne (LOLPE) [5]; 80% in test [6]. The pest or weed control at 250 g/ha worked out at 90% in [7] and 80% with Avena fatua (AVEFA) [8].
Consider `Cc1cc(Br)cc(C)c1C1C(=O)CC(CC2CCOC2)C1=O` (stereo not drawn) [Compound T160], for which the pest or weed control at 250 g/ha with Lolium perenne (LOLPE) [1] stood at 90%; in test [2] it was 30%; in test [3], 70%; with Avena fatua (AVEFA) [4], 40%; in the test with Lolium perenne (LOLPE) [5], 100%; in test [6] it was 40%. Moreover, the pest or weed control at 250 g/ha in [7] came to 70%; in the test with Avena fatua (AVEFA) [8] it was 60%.

(Values after patent US9096560B2, “5-heterocyclylalkyl-3-hydroxy-2-phenylcyclopent-2-enones as herbicides” (Syngenta Limited, priority 2008, dated 2015).)
